# Measured values taken from patent publication US20050245452A1, “Pharmaceutical use of novispirins” (Novozymes A/S, priority 2004, published 2005).
# Experiments:
# [1] = system: Staphylococcus aureus (ATCC 25923); assay: Staphylococcus aureus wound infection in pigs (wound chambers, 4 hour time course); type: in vivo, Göttinger minipigs; settings: 1 ml applied
# Description: The bacterial strain, Staphylococcus aureus, used in the study was ATCC 25923. The amino acid sequence of Novispirin G10 is shown in SEQ ID NO: 16.
# Novispirin G10 was diluted in 0.01% acetic acid containing 0.1% BSA with a final concentration of 1 mg (substrate)/ml (solution); 100 micrograms/ml; 10 micrograms/ml and 1 microgram/ml. The carrier control was 0.01% acetic acid containing 0.1% BSA. As a positive control was used Synthetic Protegrin 1 (Charité, Institut f. Biochemie d. Humboldt Universität Berlin) diluted in 0.01% acetic acid containing 0.1% BSA with a final concentration of 100 micrograms/ml.
# The chambers are made of one piece of titanium, have a screw top cover (also made of titanium) and were built in teamwork with Cranio Construct Bochum. The chambers have a height of 14 mm, an inner diameter of 25 mm and an outer diameter of 32 mm without baseplate (with baseplate: 50 mm).
# After providing permission to conduct experiments with vertebrates in compliance with German animal protection laws, Göttinger minipigs (Fa. Ellegaard, Dalmose, Denmark; female, 6 months old, 25-30 kg weight) were chosen to implant the chambers on. The pigs were kept at least 2 weeks in the stable, fed a standard porcine diet and housed at 20° C. to 30° C. in an atmosphere of approximately 65% humidity with a light cycle of 12 hours on and 12 hours off. The animals used for this study appeared, during the experiments, clinically healthy—rectal temperature and body weight remained normal over the observed period.
# Before wounding the skin was surgically prepared, washed with soap and disinfected with Octenisept (S&M, Norderstedt, Germany) for five minutes. Twelve BO-Chambers were implanted on the pigs back and flank between the base of the scapula and the iliac crest. The wounds were spaced a minimum of 5 cm apart and were created in four rows parallel to the columna vertebralis, two rows on each side of the columna vertebrtalis. The exact size and shape of the wounds were ensured by a special custom-made “round-scalpel” (also built in teamwork with Cranio Construct Bochum), which has a diameter of 33 mm. Epidermal, dermal subcutaneous tissues were removed, possible bleedings stanched by bipolar diathermy. The chambers were placed with an additionally secant v-incision at positions 6 respectively 12 o'clock on the musculus thoracicus longus fascia and the muscle fascia of the external ripcage muscles. The incisions were sutured with 2/0 Monocryl followed by the closure of the chambers. Povidone-iodine salve (Betaisodonna-salve, Mundipharma, Austria) was smothered on the wound edges. The chambers were dressed with paraffin gauze (Jelonet, Smith & Nephew, Lohfelden, Germany) and sterile compresses. Dressings were changed every second day under sedation (as described above).
# Bacterial Background of each chamber was measured every second day, to detect potential contamination. Only one contaminated chamber was detected. Seven days post operation ten chambers were inoculated with bacteria.
# For bacteria progeny Staphylococcus aureus (ATCC 25923) was plated on LB-Agar plate and incubated at 37° C. for 18 hours. One colony was picked and transfered into 3 ml LB-Medium for over night culture at 37° C. at 300 rpm. Over night culture was diluted in 50 ml fresh LB-Medium and incubated for 2.5 hours at 37° C. at 200 rpm.
# Bacteria were pelleted, 4000 rpm, 5 min, Mergafuge 1.0 R (Heraeus, Hanau, Germany), and resuspended in PBS. Amount of containg bacteria was detremined by OD600 nm-measurement and calculated as follows: Colony forming Unit/ml=OD600 nm×2.5×10^8 (bacteria)
# To inoculate one chamber 5×10^8 were used.
# The establishment of the infection was proven by the measurement of bacterial counts per chamber. All inoculated chambers were infected after two days. Chamber No. 2 keeps bacteria free.
# At day four after infection the antimicrobial effect of the testing substrate was measured in a time course of 4 hours in duration. […]
# [2] = system: P. acnes (erythromycin sensitive); assay: MIC on Propionebacterium acnes, erythromycin sensitive strain; type: cell-based
# Description: Minimal Inhibitory Concentration (MIC) of Novispirin G10 (SEQ ID NO: 16) was evaluated against P. acnes. Two strains were tested—one of which is clinically resistant to clindamycin and erythromycin.
# [3] = system: Pseudomonas aeruginosa CF86/57388A (mucoid); assay: Pseudomonas aeruginosa lung infection in rats: lung pathology and lung bacteriology; type: in vivo, Lewis rat; settings: for Lung bacteriology: Percentage of animals that cleared the bacteria in the lungs / Lung pathological scores: animals with Score 1 + 2 / Lung pathological scores: animals with Score 3 / Lung pathological scores: animals with Score 4: 0.1 mg/ml, 0.1 ml/rat intratracheally at hour 0 and 3
# Description: The bacterial strain, Pseudomonas aeruginosa, used in the study is CF86/57388A (1997), which is isolated from a cystic fibrosis patient and keeps stable mucoid phenotype. The rat strain used in the study is Lewis rat (7 weeks old, female) imported from Germany. Both bacterial challenge and drug administration were done intratracheally. All rats were challenged with mucoid P. aeruginosa in alginate. The concentration of the bacteria was 1×10^10 CFU/ml and each rat received 0.1 ml (1×10^9 CFU) bacteria. Control group received placebo (sterile saline, 0.1 ml/rat) twice at hour 0 and 3, and the Novispirin G10 group received the peptide (0.1 mg/ml, 0.1 ml/rat) twice at hour 0 and 3. The animals were sacrificed on day 3, 5, 7 and 10 after challenge for parameters evaluation.
substance,measurement,setting,value
Novispirin G10: novispirin antimicrobial polypeptide; amino acid sequence shown in SEQ ID NO: 16 (KNLRRIIRKGIHIIKKYG; Synthetic antimicrobial peptide),Mean CFU per ml sample volume (chamber fluid),"[1]; 1 mg/ml, 0 hours",10700000 CFU/ml
same,Mean CFU per ml sample volume (chamber fluid),"[1]; 1 mg/ml, 1 hour",2817 CFU/ml
same,Mean CFU per ml sample volume (chamber fluid),"[1]; 1 mg/ml, 2 hours",2100 CFU/ml
same,Mean CFU per ml sample volume (chamber fluid),"[1]; 1 mg/ml, 3 hours",833 CFU/ml
same,Mean CFU per ml sample volume (chamber fluid),"[1]; 1 mg/ml, 4 hours",1233 CFU/ml
same,Mean CFU per ml sample volume (chamber fluid),"[1]; 1 microgram/ml, 0 hours",9060000 CFU/ml
same,Mean CFU per ml sample volume (chamber fluid),"[1]; 1 microgram/ml, 1 hour",2508333 CFU/ml
same,Mean CFU per ml sample volume (chamber fluid),"[1]; 1 microgram/ml, 2 hours",159067 CFU/ml
same,Mean CFU per ml sample volume (chamber fluid),"[1]; 1 microgram/ml, 3 hours",33858 CFU/ml
same,Mean CFU per ml sample volume (chamber fluid),"[1]; 1 microgram/ml, 4 hours",148333 CFU/ml
same,Mean CFU per ml sample volume (chamber fluid),"[1]; 10 micrograms/ml, 0 hours",5065000 CFU/ml
same,Mean CFU per ml sample volume (chamber fluid),"[1]; 10 micrograms/ml, 1 hour",440500 CFU/ml
same,Mean CFU per ml sample volume (chamber fluid),"[1]; 10 micrograms/ml, 2 hours",304500 CFU/ml
same,Mean CFU per ml sample volume (chamber fluid),"[1]; 10 micrograms/ml, 3 hours",40910 CFU/ml
same,Mean CFU per ml sample volume (chamber fluid),"[1]; 10 micrograms/ml, 4 hours",1563188 CFU/ml
same,Mean CFU per ml sample volume (chamber fluid),"[1]; 100 micrograms/ml, 0 hours",1330000 CFU/ml
same,Mean CFU per ml sample volume (chamber fluid),"[1]; 100 micrograms/ml, 1 hour",790033 CFU/ml
same,Mean CFU per ml sample volume (chamber fluid),"[1]; 100 micrograms/ml, 2 hours",195125 CFU/ml
same,Mean CFU per ml sample volume (chamber fluid),"[1]; 100 micrograms/ml, 3 hours",142765 CFU/ml
same,Mean CFU per ml sample volume (chamber fluid),"[1]; 100 micrograms/ml, 4 hours",8467 CFU/ml
same,Minimal Inhibitory Concentration (MIC),[2],2
same,Lung bacteriology: Percentage of animals that cleared the bacteria in the lungs,[3]; Day 3,(30%)
same,Lung bacteriology: Percentage of animals that cleared the bacteria in the lungs,[3]; Day 5,(50%)
same,Lung bacteriology: Percentage of animals that cleared the bacteria in the lungs,[3]; Day 7,(90%)
same,Lung bacteriology: Percentage of animals that cleared the bacteria in the lungs,[3]; Day 10,(100%)
same,Gross lung pathology compared with the placebo control group,"[3]; all 4 time points (day 3, 5, 7, 10)",significantly milder lung pathology
same,Histopathology of lungs,[3]; day 3,lung consolidation with chronic inflammation is the dominant change
same,Lung bacteriology compared to the control group,[3]; day 3,175 times lower
same,Severity of lung scoring versus control group,[3]; day 3,no significant difference in the severity of lung scoring
same,Gross lung pathology: lung consolidation area,"[3]; day 3, versus placebo control",the consolidation area was much smaller
same,Lung pathological scores: animals with Score 1 + 2,[3]; day 3 after challenge,0/14 = 0%
same,Lung pathological scores: animals with Score 3,[3]; day 3 after challenge,3/14 = 21.4%
same,Lung pathological scores: animals with Score 4,[3]; day 3 after challenge,11/14 = 78.6%
same,Histopathology of lungs,[3]; day 5,milder chronic inflammation
same,Lung pathological scores: animals with Score 1 + 2,[3]; day 5 after challenge,0/14 = 0%
same,Lung pathological scores: animals with Score 3,[3]; day 5 after challenge,10/14 = 71.4%
same,Lung pathological scores: animals with Score 4,[3]; day 5 after challenge,0/14 = 0%
same,Lung pathological scores: animals with Score 1 + 2,[3]; day 7 after challenge,6/11 = 54.5%
same,Lung pathological scores: animals with Score 3,[3]; day 7 after challenge,5/11 = 45.5%
same,Lung pathological scores: animals with Score 4,[3]; day 7 after challenge,0/11 = 0%
same,Histopathology of lungs,[3]; day 10,the lung pathology was tended to be cured
same,Lung pathological scores: animals with Score 1 + 2,[3]; day 10 after challenge,11/14 = 78.6%
same,Lung pathological scores: animals with Score 3,[3]; day 10 after challenge,3/14 = 21.4%
same,Lung pathological scores: animals with Score 4,[3]; day 10 after challenge,0/14 = 0%
same,Gross lung pathology: dominant finding,"[3]; days 5, 7 and 10","small lung atelectasis, no abscess and adhesion found"
same,Severity of lung scoring versus control group,[3]; from day 5 on,significantly milder lung pathology
same,Histopathology of lungs in comparison with the placebo control group,"[3]; overall, intratracheal treatment",milder lung inflammation and recover remarkably faster
